From patent US8546611B2 (priority 2008, dated 2013)
Read-outs that look alike come from different tables or passages of the source.

Experiments:
[1] = tested on: erythroid cells isolated from the bone marrow of laboratory mice males; details: feed with succinic acid 20 mg/kg body wt., not irradiated, norm 5.0±1.0
Procedure: The test for genotoxicity was performed on young laboratory mice males (18-20 g; 6 animals in each group). […] The control animals were given water.

Wistar rat males = details: 1.5 ml of 1% succinic acid perorally 10 min prior; for Eosinophils, 6 h after / Lymphocytes, 6 h after / Number of leukocytes in 1 μl of blood, 6 h after / Segmentated cells, 6 h after: 6 h after immobilization; for Eosinophils, before / Lymphocytes, before / Number of leukocytes in 1 μl of blood, before / Segmentated cells, before: at the moment of immobilization
Procedure: Examples, illustrating the method invented, are presented below. […] SA is tested on rats endured an immobilization stress; the parameter tested is lymphocytic composition of blood, which is determined before and after stress in a blood smear taken from the caudal vein. […] A detailed description of the testing technique is given in Example 13.
The animals were fixed while lying flat on their back, with their legs secured. […] Blood was taken from the caudal vein: 10 μl for counting blood corpuscles and 20 μl for preparing a smear with its subsequent staining by Romanovsky-Giemsa).
First group: 10 min prior immobilization, the animals were injected (perorally, with the help of a stomach pump) with 1.5 ml of 1% starch solution. […] Blood was taken from the caudal vein at the moment of immobilization and 6 hours later, and stained blood smears were prepared to calculate the leukogram.

[2] = tested on: patients with cardiac insufficiency; details: for patients of functional class I, day 30 / patients of functional class II, day 30 / patients of functional class III, day 30 / patients of functional class IV, day 30 / patients of functional class I, day 60 / patients of functional class II, day 60 / patients of functional class III, day 60 / patients of functional class IV, day 60 / patients of functional class I, day 90 / patients of functional class II, day 90 / patients of functional class III, day 90 / patients of functional class IV, day 90: 100 mg twice per day with standard therapy; for patients of functional class I, day 30 / patients of functional class II, day 30 / patients of functional class III, day 30 / patients of functional class IV, day 30: after 30 days; for patients of functional class I, day 60 / patients of functional class II, day 60 / patients of functional class III, day 60 / patients of functional class IV, day 60: after 60 days; for patients of functional class I, day 90 / patients of functional class II, day 90 / patients of functional class III, day 90 / patients of functional class IV, day 90: after 90 days; for patients of functional class I, day 0 / patients of functional class II, day 0 / patients of functional class III, day 0 / patients of functional class IV, day 0: 100 mg twice per day, 3 months, with standard therapy, before treatment
Procedure: The test for cardiotonic activity of product samples was performed by measuring the dynamics of alteration of the functional class of cardiac failure. The functional class can be determined quite accurately by analyzing the everyday life activities according to a specific activity scale. The authors of this technique suppose that the criteria developed by NYHA (New York Heart Association) cannot provide accurate determination of functional class, since widely used terms, such as “everyday physical activity”, “sub-everyday activity” are not specific. On the basis of multiple tests, in which patients exercised on a treadmill, the authors calculated a scale of metabolic expenses for each kind of life activity (see Goldman L., Hashimoto B., Cook F. et al., Comparative reproducibility and validity of systems for assessing cardiovascular functional class: advantages of a new specific activity scale (1981) Circulation 64 (6):1227-34). This inquiry is designed to be used by medical personnel, interviewing a patient. After calculating the sum of possible energy expenses, the functional class of the patient is determined according to the summary criteria of the specific activity scale (Table 6).
In the tests, the patient groups were formed so that the people of the same functional class were equally distributed among different groups. Severe patients (of IV functional class; those having oncological diseases or suffered myocardial infarction/stroke to the brain 60 days or less before) were not admitted to the tests. The distribution of patients among groups was governed by a random number generator. The tests were carried out by the following protocol. Each patient took 100 mg of the preparation twice per day (in the morning and after lunch) during 3 months—against the background of a standard therapy administered by a physician. […] All the samples and placebo were encoded before sending into the clinic, so none of those involved into the tests (patients, physicians, medical personnel and the manager of tests) was aware of the nature of samples.
The functional class of patients was determined several times: at the beginning of tests (before the formation of test groups) and after 30, 60 and 90 days of treatment with the test samples. The estimation was performed on the basis of the activity scale (Table 7).

white rat females = details: female, in vivo, 5000 mg/kg; for Total died: 14 days
[3] = tested on: erythroid cells isolated from the bone marrow of gamma-irradiated laboratory mice males; experiment: Radioprotective properties (micronucleus test after gamma irradiation); details: mice irradiated with gamma rays 1.3 Gy, then fed 48 h succinic acid 20 mg/kg body wt.; critical value 16±2

Structure (SMILES) | Number of micronuclei per 2000 cells (genotoxicity) [1] | patients of functional class I, day 30 [2] | patients of functional class II, day 30 [2] | patients of functional class III, day 30 [2] | patients of functional class IV, day 30 [2] | patients of functional class I, day 60 [2] | patients of functional class II, day 60 [2] | patients of functional class III, day 60 [2] | patients of functional class IV, day 60 [2] | patients of functional class I, day 90 [2] | patients of functional class II, day 90 [2] | patients of functional class III, day 90 [2] | patients of functional class IV, day 90 [2] | patients of functional class I, day 0 [2] | patients of functional class II, day 0 [2] | patients of functional class III, day 0 [2] | patients of functional class IV, day 0 [2] | died, 14 day (white rat females) | Total died (white rat females) | Number of micronuclei per 2000 cells (radioprotective properties) [3] | also measured
O=C(O)CCC(=O)O [Example 6, succinic acid] | 4.5 ± 1.0 | 10 | 6 | 4 | 0 | 11 | 6 | 3 | 0 | 14 | 5 | 1 | 0 | 8 | 7 | 5 | 0 | 2 | 3 | 12.5 ± 1.0 | Eosinophils, 6 h after (Wistar rat males; listed as Ex. 6): 1.0 ± 2%; Lymphocytes, 6 h after (Wistar rat males; listed as Ex. 6): 74 ± 6%; Number of leukocytes in 1 μl of blood, 6 h after (Wistar rat males; listed as Ex. 6): 7000; Segmentated cells, 6 h after (Wistar rat males; listed as Ex. 6): 25 ± 3%; Eosinophils, before (Wistar rat males; listed as Ex. 6): 2 ± 2%; Lymphocytes, before (Wistar rat males; listed as Ex. 6): 77 ± 5%; Number of leukocytes in 1 μl of blood, before (Wistar rat males; listed as Ex. 6): 5800; Segmentated cells, before (Wistar rat males; listed as Ex. 6): 21 ± 3%; died, 11 day (white rat females; 11 day): 1
O=C(O)CCC(=O)O [Example 7, succinic acid] | 5.0 ± 1.0 | 9 | 6 | 5 | 0 | 13 | 5 | 2 | 0 | 15 | 4 | 1 | 0 | 8 | 7 | 5 | 0 | 2 | 4 | 11.5 ± 1.8 | Eosinophils, 6 h after (Wistar rat males; listed as Ex. 7): 1.5 ± 4%; Lymphocytes, 6 h after (Wistar rat males; listed as Ex. 7): 73 ± 6%; Number of leukocytes in 1 μl of blood, 6 h after (Wistar rat males; listed as Ex. 7): 7200; Segmentated cells, 6 h after (Wistar rat males; listed as Ex. 7): 26 ± 3%; Eosinophils, before (Wistar rat males; listed as Ex. 7): 2 ± 1%; Lymphocytes, before (Wistar rat males; listed as Ex. 7): 75 ± 7%; Number of leukocytes in 1 μl of blood, before (Wistar rat males; listed as Ex. 7): 6000; Segmentated cells, before (Wistar rat males; listed as Ex. 7): 23 ± 3%; died, 13 day (white rat females): 2
O=C(O)CCC(=O)O [Example 8, succinic acid] | 5.0 ± 0.8 | 10 | 6 | 4 | 0 | 11 | 6 | 3 | 0 | 14 | 5 | 1 | 0 | 8 | 7 | 5 | 0 | 1 | 3 | 12.0 ± 1.5 | Eosinophils, 6 h after (Wistar rat males; listed as Ex. 8): 1.5 ± 3%; Lymphocytes, 6 h after (Wistar rat males; listed as Ex. 8): 75 ± 4%; Number of leukocytes in 1 μl of blood, 6 h after (Wistar rat males; listed as Ex. 8): 7000; Segmentated cells, 6 h after (Wistar rat males; listed as Ex. 8): 24 ± 2%; Eosinophils, before (Wistar rat males; listed as Ex. 8): 2 ± 6%; Lymphocytes, before (Wistar rat males; listed as Ex. 8): 77 ± 5%; Number of leukocytes in 1 μl of blood, before (Wistar rat males; listed as Ex. 8): 5900; Segmentated cells, before (Wistar rat males; listed as Ex. 8): 21 ± 4%; died, 12 day (white rat females; 12 day): 1; died, 13 day (white rat females): 1
O=C(O)CCC(=O)O [Example 9, succinic acid] | 5.0 ± 1.0 | 10 | 6 | 4 | 0 | 11 | 6 | 3 | 0 | 14 | 5 | 1 | 0 | 8 | 7 | 5 | 0 | 1 | 3 | 11.0 ± 1.6 | Eosinophils, 6 h after (Wistar rat males; listed as Ex. 9): 1.5 ± 2%; Lymphocytes, 6 h after (Wistar rat males; listed as Ex. 9): 74 ± 6%; Number of leukocytes in 1 μl of blood, 6 h after (Wistar rat males; listed as Ex. 9): 7000; Segmentated cells, 6 h after (Wistar rat males; listed as Ex. 9): 25 ± 6%; Eosinophils, before (Wistar rat males; listed as Ex. 9): 2 ± 4%; Lymphocytes, before (Wistar rat males; listed as Ex. 9): 76 ± 6%; Number of leukocytes in 1 μl of blood, before (Wistar rat males; listed as Ex. 9): 5800; Segmentated cells, before (Wistar rat males; listed as Ex. 9): 22 ± 3%; died, 13 day (white rat females): 2
O=C(O)CCC(=O)O [Example 10, succinic acid] | 5.0 ± 1.0 | 10 | 5 | 4 | 0 | 10 | 7 | 3 | 0 | 14 | 5 | 1 | 0 | 8 | 7 | 5 | 0 | 2 | 3 | 12.5 ± 1.0 | Eosinophils, 6 h after (Wistar rat males; listed as Ex. 10): 1.5 ± 2%; Lymphocytes, 6 h after (Wistar rat males; listed as Ex. 10): 74 ± 4%; Number of leukocytes in 1 μl of blood, 6 h after (Wistar rat males; listed as Ex. 10): 7000; Segmentated cells, 6 h after (Wistar rat males; listed as Ex. 10): 24 ± 4%; Eosinophils, before (Wistar rat males; listed as Ex. 10): 2 ± 2%; Lymphocytes, before (Wistar rat males; listed as Ex. 10): 76 ± 5%; Number of leukocytes in 1 μl of blood, before (Wistar rat males; listed as Ex. 10): 5800; Segmentated cells, before (Wistar rat males; listed as Ex. 10): 22 ± 3%; died, 13 day (white rat females): 1
